In one assay the target is T1, Human DYRK1B (Homo sapiens, UniProt Q9Y463).
T1 construct: purchased Invitrogen PR8350B (former PV4649)
As to the kind of experiment: DYRK1B Kinase TR-FRET (IMAP-Tb) Assay. Conditions: for IC50: TR-FRET, ATP 70 μM, 37° C. for 60 minutes, averages of multiple runs, read-out: Enzyme IC50 DYRK1B. It counts as biochemical. From the text: The kinase TR-FRET (IMAP-Tb) assay uses a fluorescence labeled substrate peptide in the kinase reaction. Upon phosphorylation by the kinase, phosphopeptide is produced, which will be detected by the binding solution provided in IMAP TR-FRET binding kit. After the completion of the kinase reaction, the reaction will be stopped by adding the binding solution containing terbium tracer. This tracer is immobilized on the surface of the IMAP beads, which also contain metal ions on the beads that bind to the phospho-groups of the products. Thus the phosphorylated product of the reaction can enter into close proximity to the tracer, producing resonance energy transfer. Due to the long lifetime of terbium (Tb) fluorescence the detection can be run in time resolved mode, which virtually eliminates fluorescence interference from assay components or compounds. […] IC50 is the amount of test compound that inhibits 50% of the activity of DYRK1B in this assay. […] 1. Human DYRK1B: from Invitrogen. Part # PR8350B (former PV4649) 2. Substrate Peptide: RRRFRPASPLRGPPK 3. IMAP TR-FRET IPP Explorer Kit: from Molecular Devices. Part # R8157 4. Kinase Assay Buffer (KAB): 10 mM HEPES pH 7.0, 50 mM NaCl, 5 mM MgCl2, 1 mM DTT, 1 mM NaVO4, 200 μg/mL BSA (0.02%) 5. Assay Plate: Remp polypropylene clear 384-well microplate. Cat#23490-102 6. Detection Plate: Costa black 384-well microplate. Cat #3710 Assay Procedure: This assay was performed as follows: 1. Transfer 1.5 μL of 20× compound solution to each well of an assay plate. 2. Add to each well 22.5 μL of KAB Buffer. 3. Add to each well 3 μL of the solution of DYRK1B and ATP. […] Add to each well 3 μL of the substrate peptide. […] Incubate the assay plates at 37° C. for 60 minutes. 6. Add 18 μL of Detection Solution (1:800 diluted Progress bead stock, 1:400 diluted Tb stock, 80% Buffer A, and 20% Buffer B) into each well of detection plates. 7. Transfer 6 μL of assay solution from the assay plate to the detection plate. 8. Shake detection plates for 30 minutes. 9. Read plates in Envision with wavelength set at excitation 340 nm for Tb, emission 490 nm, and […]. 10. Calculation: TR-FRET Signal=(Reading at […])×2000000
Background: Time-resolved FRET reads energy transfer from a long-lived donor to a nearby acceptor.

A further assay addresses T2, Human DYRK1A (Homo sapiens, UniProt Q13627).
T2 construct: purchased Invitrogen PV3997
Description: DYRK1A Kinase TR-FRET (IMAP-Tb) Assay. In kind it is biochemical. Particulars: for IC50: TR-FRET, ATP 70 μM, 37° C. for 60 minutes, averages of multiple runs, read-out: Enzyme IC50 DYRK1A. The source says:
The kinase TR-FRET (IMAP-Tb) assay uses a fluorescence labeled substrate peptide in the kinase reaction. Upon phosphorylation by the kinase, phosphopeptide is produced, which will be detected by the binding solution provided in IMAP TR-FRET binding kit. After the completion of the kinase reaction, the reaction will be stopped by adding the binding solution containing terbium tracer. This tracer is immobilized on the surface of the IMAP beads, which also contain metal ions on the beads that bind to the phospho-groups of the products. Thus the phosphorylated product of the reaction can enter into close proximity to the tracer, producing resonance energy transfer. Due to the long lifetime of terbium (Tb) fluorescence the detection can be run in time resolved mode, which virtually eliminates fluorescence interference from assay components or compounds.
The TR-FRET signal measurement from this assay, given as an IC50 measurement, is a measure of a test compound's ability to interfere with the phosphorylation of the peptide substrate, that is it inhibits the phosphorylation of the substrate peptide by DYRK1A, and is thus a measure of the test compound's ability to inhibit the activity of DYRK1A.
1. Human DYRK1A: from Invitrogen. Part # PV3997
2. Substrate Peptide: […]
3. IMAP TR-FRET IPP Explorer Kit: from Molecular Devices. Part # R8157 4. Kinase Assay Buffer (KAB): 10 mM HEPES pH 7.0, 50 mM NaCl, 5 mM MgCl2, 1 mM DTT, 1 mM NaVO4, 200 μg/mL BSA (0.02%) 5. Assay Plate: Remp polypropylene clear 384-well microplate. […] Detection Plate: Costa black 384-well microplate. […] Transfer 1.5 μL of 20× compound solution to each well of an assay plate. 2. Add to each well 22.5 μL of KAB Buffer. 3. Add to each well 3 μL of the solution of DYRK1A and ATP. […] Add to each well 3 μL of the substrate peptide. The assay concentration is 1.0 μM 5. Incubate the assay plates at 37° C. for 60 minutes. 6. Add 18 μL of Detection Solution (1:800 diluted Progress bead stock, 1:400 diluted Tb stock, 80% Buffer A, and 20% Buffer B) into each well of detection plates. 7. Transfer 6 μL of assay solution from the assay plate to the detection plate. 8. Shake detection plates for 30 minutes. 9. Read plates in Envision with wavelength set at excitation 340 nm for Tb, emission 490 nm, and […].

Assay [1] relates to SW620 human colon cancer cells. Description: SW620 Cell Viability Assay (CellTiter-Glo). It counts as cell-based. Particulars: SW-620, 96 h, 4 days incubation, read-out: Cellular EC50 SW620. On the procedure:
1. Cell Plate Preparation: SW620 human colon cancer cells (known to express DYRK1B), obtained from ATCC, were seeded into 96-well plates at […] in 50 μL of media. • Harvested the required number of cells (counts & viability determined by Guava Viacount). • Centrifuge cells to pellet and removed supernant. • Resuspended in growth media (50 μL/well) & pipetted thoroughly to break up clumps. • Setup for ˜100 wells/plate, therefore, VT=5 mL/plate @ 1.2×10^5 cells/mL. 1A. Some cells (S-) were allowed to attach for 24 hrs, serum starved for 48 hrs, and then followed with treatments of test compound.
Test Compound solution was prepared in regular corresponding media supplemented with serum
2. Test Compound Preparation: Test compounds were solubilized in either DMSO or media and prepared at various stock concentrations. • All compounds were incubated at 37° C. for 30 minutes and vortexed. • (5 mM stocks of test compound were prepared for non-soluble drugs)
3. Test Compound Plate Preparation:
• The 10 mM test compound stock was diluted to a concentration of 100× the final Cmax concentration. • Then the test compound stock is diluted 50-fold in media and/or second test compound for a final Cmax concentration in the test compound plate. • The Cmax in the test compound plate (2% DMSO) is 2-fold higher than the final Cmax in the cell plate (60 uL titrations were 1:3). 4. Viability Assay: This assay was performed as follows: • Transfer 50 μL of test compound solution per well from the test compound plate onto the cell plate prepared in Step #1. • Mix the plate with treated cells by pipetting up and down three times with 200 μL multi-channel pipet. • Incubate the cells in 5% CO2 incubator @ 37° C. for 4 days. • Run the CellTiter-Glo™ Luminescent Cell Viability Assay. The results of this assay, given as EC50 values, indicate the concentration of test compound that inhibits tumor cell proliferation by 50%.
A general note: Cellular ATP, detected with luciferase, serves as a proxy for viable cell number.

The term IC50 denotes the concentration needed to halve the response being measured. By EC50 is commonly meant the concentration giving half of the maximal effect.

T1 sequence (Q9Y463 whole entry): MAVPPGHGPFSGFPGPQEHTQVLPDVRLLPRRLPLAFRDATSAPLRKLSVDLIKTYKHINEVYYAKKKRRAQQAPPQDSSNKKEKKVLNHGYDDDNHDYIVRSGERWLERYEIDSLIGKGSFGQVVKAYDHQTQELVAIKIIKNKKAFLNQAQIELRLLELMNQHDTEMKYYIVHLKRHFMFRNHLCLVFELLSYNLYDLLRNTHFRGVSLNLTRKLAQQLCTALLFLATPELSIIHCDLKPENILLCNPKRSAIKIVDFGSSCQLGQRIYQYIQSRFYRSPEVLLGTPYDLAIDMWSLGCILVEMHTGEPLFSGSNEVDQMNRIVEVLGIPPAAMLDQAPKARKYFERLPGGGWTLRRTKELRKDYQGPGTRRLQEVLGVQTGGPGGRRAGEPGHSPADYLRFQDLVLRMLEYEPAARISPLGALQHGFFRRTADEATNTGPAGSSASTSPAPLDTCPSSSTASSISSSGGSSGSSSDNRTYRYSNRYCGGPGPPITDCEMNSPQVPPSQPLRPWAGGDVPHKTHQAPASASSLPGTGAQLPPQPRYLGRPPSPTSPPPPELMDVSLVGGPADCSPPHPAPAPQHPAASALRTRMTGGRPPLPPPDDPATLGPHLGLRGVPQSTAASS

In the case of `COCCOc1cc2cc(C(=O)Nc3cc(C(=O)N[C@H](CCN)c4ccccc4)ccc3C)c(=O)[nH]c2cc1OC` (single isomer, unassigned) [Example 58], the half-inhibitory concentration (IC50) at Human DYRK1B turned out to be 29 nM; at Human DYRK1A it was 9 nM. Further, in assay [1], the 50% effective concentration (EC50) was determined as 4040 nM.
The corresponding values for `COc1cc2cc(C(=O)Nc3cc(C(=O)NC(CCN)c4ccccc4)ccc3C)c(=O)[nH]c2cc1OC` (stereo in doubt) [Example 47, 6,7-Dimethoxy-2-oxo-1,2-dihydro-quinoline-3-carboxylic acid [5-((R)-3-amino-1-phenyl-propylcarbamoyl)-2-methyl-phenyl]-amide] are 14 nM, 85.5 nM and over 3000 nM.
For the molecule `COC(=O)c1ccc(C)c(NC(=O)c2cc3cc(OC)c(OC)cc3[nH]c2=O)c1` [Example 17, 3-[(6,7-Dimethoxy-2-oxo-1,2-dihydro-quinoline-3-carbonyl)-amino]-4-methyl-benzoic acid methyl ester], the 50% inhibitory concentration (IC50) at Human DYRK1B came out at 560 nM. In assay [1], the concentration for a half-maximal effect (EC50) was over 10000 nM.
In the case of `COC(=O)c1ccc(Cl)c(NC(=O)c2cc3cc(OC)c(OC)cc3[nH]c2=O)c1` [Example 19, 4-Chloro-3-[(6,7-dimethoxy-2-oxo-1,2-dihydro-quinoline-3-carbonyl)-amino]-benzoic acid methyl ester], the inhibition at 10 µM at Human DYRK1B (10 μM test compound, reported where IC50 was not determined, read-out: Enzyme DYRK1B % inhibition at 10 μM test compound concentration) worked out at 47%; on Human DYRK1A (10 μM test compound, reported where IC50 was not determined, read-out: Enzyme DYRK1A % inhibition at 10 μM test compound concentration) it was 44%. Also, the EC50 in assay [1] is over 10000 nM.
On to `COCCOc1cc2cc(C(=O)Nc3cc(C(=O)OC)ccc3C)c(=O)[nH]c2cc1OC` [Example 23, 3-{[7-Methoxy-6-(2-methoxy-ethoxy)-2-oxo-1,2-dihydro-quinoline-3-carbonyl]-amino}-4-methyl-benzoic acid methyl ester], for which the 50% inhibitory concentration (IC50) came out at 440 nM on Human DYRK1B and 262 nM at Human DYRK1A. Further, the EC50 in assay [1] was over 10000 nM.
With `COc1cc2cc(C(=O)Nc3cc(C(=O)NC(CN)c4ccccc4)ccc3C)c(=O)[nH]c2cc1OC` (stereo not drawn) [Example 31, 6,7-Dimethoxy-2-oxo-1,2-dihydro-quinoline-3-carboxylic acid [5-(2-amino-1-phenyl-ethylcarbamoyl)-2-methyl-phenyl]-amide], the half-inhibitory concentration (IC50) on Human DYRK1B was 141 nM. Also, the EC50 in assay [1] is 1920 nM.
As for `COc1cc2cc(C(=O)Nc3cc(C(=O)NC(CCN)c4ccccc4)ccc3C)c(=O)[nH]c2cc1OC` (stereo not drawn) [Example 35, 6,7-Dimethoxy-2-oxo-1,2-dihydro-quinoline-3-carboxylic acid [5-(3-amino-1-phenyl-propylcarbamoyl)-2-methyl-phenyl]-amide], the half-maximal inhibitory concentration (IC50) on Human DYRK1B is 59.5 nM; on Human DYRK1A, 154 nM. Further, the concentration giving a half-maximal response (EC50) in assay [1] was found to be 2050 nM.
Take `COCCOc1cc2cc(C(=O)Nc3cc(C(=O)NC(CN)c4ccccc4)ccc3C)c(=O)[nH]c2cc1OC` (stereo not drawn) [Example 37, 7-Methoxy-6-(2-methoxy-ethoxy)-2-oxo-1,2-dihydro-quinoline-3-carboxylic acid [5-(2-amino-1-phenyl-ethylcarbamoyl)-2-methyl-phenyl]-amide]: the IC50 was determined as 32.5 nM at Human DYRK1B and 19.1 nM on Human DYRK1A. Besides, in assay [1], the EC50 came to 1820 nM.
In the same order, the values of `COCCOc1cc2cc(C(=O)Nc3cc(C(=O)NC(CCN)c4ccccc4)ccc3C)c(=O)[nH]c2cc1OC` (stereo not drawn) [Example 38, 7-Methoxy-6-(2-methoxy-ethoxy)-2-oxo-1,2-dihydro-quinoline-3-carboxylic acid [5-(3-amino-1-phenyl-propylcarbamoyl)-2-methyl-phenyl]-amide] are 44.8 nM, 34.7 nM and 2760 nM.
The corresponding values for `COC(=O)c1ccc(C)c(NC(=O)c2cc3cc(OCCN4CCOCC4)c(OC)cc3[nH]c2=O)c1` [Example 39, 3-{[7-Methoxy-6-(2-morpholin-4-yl-ethoxy)-2-oxo-1,2-dihydro-quinoline-3-carbonyl]-amino}-4-methyl-benzoic acid methyl ester] are 190 nM, 150 nM and 3410 nM.
The corresponding values for `COc1cc2cc(C(=O)Nc3cc(C(=O)NCc4ccccc4)ccc3C)c(=O)[nH]c2cc1OC` [Example 42, 6,7-Dimethoxy-2-oxo-1,2-dihydro-quinoline-3-carboxylic acid (5-benzylcarbamoyl-2-methyl-phenyl)-amide] are 320 nM, 226 nM and over 10000 nM.
For the molecule `COc1cc2[nH]c(=O)c(C(=O)Nc3cc(C(=O)NCc4cccc(Cl)c4)ccc3C)cc2cc1OCCN1CCOCC1` [Example 43, 7-Methoxy-6-(2-morpholin-4-yl-ethoxy)-2-oxo-1,2-dihydro-quinoline-3-carboxylic acid [5-(3-chloro-benzylcarbamoyl)-2-methyl-phenyl]-amide], the half-maximal inhibitory concentration (IC50) turned out to be 178 nM on Human DYRK1B and 6 nM at Human DYRK1A. The EC50 in assay [1] amounted to 306 nM.
With `COc1cc2cc(C(=O)Nc3cc(C(=O)NC(CN)c4cccc(Cl)c4)ccc3C)c(=O)[nH]c2cc1OC` (stereo not drawn) [Example 50, 6,7-Dimethoxy-2-oxo-1,2-dihydro-quinoline-3-carboxylic acid {5-[2-amino-1-(3-chloro-phenyl)-ethylcarbamoyl]-2-methyl-phenyl}-amide], the IC50 at Human DYRK1B amounted to 73.2 nM. In addition, the EC50 in assay [1] worked out at 1130 nM.

Values taken from US20120184548A1, “CARBOXYLIC ACID ARYL AMIDES” (priority 2011, published 2012).
